# How the values were obtained:
# [1] = pH of 1% water solution; type: physicochemical
# [2] = Dissolution test, USP apparatus 1, 900 ml water with 0.9% NaCl, 150 rpm, 37°C, HPLC; type: physicochemical; details: compared to O-desmethyl-venlafaxine succinate from the tablet having the same composition
# Experimental: Dissolution properties were evaluated by in vivo relevant dissolution test. USP apparatus 1 was used for testing. 900 ml of water with 0.9% NaCl is placed in the dissolution vessel, mixed with a paddle at 150 rpm and kept at 37±0.5° C. Samples were taken from the dissolution vessel at regular time intervals and the concentrations of O-desmethyl-venlafaxine were analyzed by HPLC.
# Pharmaceutical compositions might be optionally placed for 60 minutes in 900 ml 0.01 M HCl before being placed in 900 ml water with 0.9% NaCl.
SMILES,pH (1% water solution) [1],dissolution of salt from matrix tablet [2]
CN(C)CC(c1ccc(O)cc1)C1(O)CCCCC1.O=C[C@H](O)[C@@H](O)[C@H](O)[C@H](O)C(=O)O (stereo not drawn) [O-desmethyl-venlafaxine glucuronate],6.14,
CN(C)CC(c1ccc(O)cc1)C1(O)CCCCC1.O=C(O)c1cc(=O)[nH]c(=O)[nH]1 (stereo not drawn) [O-desmethyl-venlafaxine orotate],3.3,much faster
